Experimental data: patent US20150352108A1, “AMINO-PYRIMIDINE COMPOUNDS AS INHIBITORS OF TBK1 AND/OR IKK EPSILON” (Alzheimer's Institute of America, priority 2009, published 2015)
Like-named read-outs stand apart in the source and are kept apart here.

Tests used:
IKKε = molecular target: T1, IKKε (Homo sapiens, UniProt Q14164); test: In-vitro IKKε kinase assay ([γ33]ATP filter-plate); type: biochemical
T1 construct: His-tag; made in house; host or cells: Sf9 insect cells
T1 sequence (Q14164 1-716): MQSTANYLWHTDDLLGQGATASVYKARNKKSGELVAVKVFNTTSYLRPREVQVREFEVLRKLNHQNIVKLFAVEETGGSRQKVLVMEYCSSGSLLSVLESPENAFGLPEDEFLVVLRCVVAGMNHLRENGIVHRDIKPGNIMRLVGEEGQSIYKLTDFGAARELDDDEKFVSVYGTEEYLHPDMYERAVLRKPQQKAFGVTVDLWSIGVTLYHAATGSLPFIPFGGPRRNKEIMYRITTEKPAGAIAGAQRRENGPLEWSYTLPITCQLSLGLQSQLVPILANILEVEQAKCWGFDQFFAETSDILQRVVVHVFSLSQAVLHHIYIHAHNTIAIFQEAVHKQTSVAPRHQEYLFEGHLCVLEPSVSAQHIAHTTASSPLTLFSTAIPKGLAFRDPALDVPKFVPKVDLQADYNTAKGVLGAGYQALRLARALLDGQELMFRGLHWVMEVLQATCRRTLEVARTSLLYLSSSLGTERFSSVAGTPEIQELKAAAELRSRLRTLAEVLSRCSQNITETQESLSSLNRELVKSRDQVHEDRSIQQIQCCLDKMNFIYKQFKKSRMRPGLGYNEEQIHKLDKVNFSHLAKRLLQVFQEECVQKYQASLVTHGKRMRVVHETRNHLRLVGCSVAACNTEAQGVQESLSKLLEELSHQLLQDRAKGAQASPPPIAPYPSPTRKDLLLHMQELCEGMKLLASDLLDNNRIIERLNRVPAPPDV
Method in brief: (§1)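 Phosphorylation of casein or myelin basic protein was counted by P-81 filter capture after 30-45 min reactions stopped with phosphoric acid, with counts normalized to DMSO after background subtraction. ATP was twice Km: 60 μM for TBK1 and 32 μM for IKKε, plus [γ33]ATP. Sf9-expressed His-tag enzymes were used at normal/sensitized levels of 0.1/0.02 μg/ml (TBK1) and 0.1/0.015 μg/ml (IKKε).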

TBK1 = molecular target: T2, TBK1 (Homo sapiens, UniProt Q9UHD2); test: In-vitro TBK1 kinase assay ([γ33]ATP filter-plate); type: biochemical
T2 construct: His-tag; made in house; host or cells: Sf9 insect cells
T2 sequence (Q9UHD2 1-729): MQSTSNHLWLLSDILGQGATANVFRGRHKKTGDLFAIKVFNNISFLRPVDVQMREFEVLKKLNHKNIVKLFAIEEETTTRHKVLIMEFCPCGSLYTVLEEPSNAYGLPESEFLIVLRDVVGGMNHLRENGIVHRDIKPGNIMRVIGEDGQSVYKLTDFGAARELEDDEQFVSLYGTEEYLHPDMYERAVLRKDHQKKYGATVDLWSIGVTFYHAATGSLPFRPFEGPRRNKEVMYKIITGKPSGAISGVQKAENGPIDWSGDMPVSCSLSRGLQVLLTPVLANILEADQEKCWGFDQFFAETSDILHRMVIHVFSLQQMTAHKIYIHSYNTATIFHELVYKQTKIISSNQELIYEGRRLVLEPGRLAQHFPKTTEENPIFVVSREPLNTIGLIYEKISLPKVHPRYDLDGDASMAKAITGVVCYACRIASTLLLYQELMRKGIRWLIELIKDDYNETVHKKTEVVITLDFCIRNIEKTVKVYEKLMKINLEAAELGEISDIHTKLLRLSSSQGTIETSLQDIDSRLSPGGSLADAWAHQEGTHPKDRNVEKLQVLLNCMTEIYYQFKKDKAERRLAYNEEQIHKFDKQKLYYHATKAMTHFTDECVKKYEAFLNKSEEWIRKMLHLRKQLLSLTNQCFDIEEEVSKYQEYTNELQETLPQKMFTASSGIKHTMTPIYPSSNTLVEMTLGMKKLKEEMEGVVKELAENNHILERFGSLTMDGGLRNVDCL
Method in brief: as §1

[1] = system: IKKε-mediated phosphorylation of IRF3; test: In-situ phosphorylation of IRF3 (pIRF3 Ser396 ELISA) in HEK293T cells cotransfected with IRF3 and IKKε; type: cell-based; conditions: Homo sapiens, HEK-293T
Method in brief: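 Cells for the IRF7 Western blots carried IRF7 and TBK1 plasmids, were seeded at 150,000/well, exposed to compound overnight and probed for pSer477/Ser479 IRF7. The ELISA readout used IRF3 + IKKε-cotransfected HEK293T at 20,000/well with 20 h treatment, quantifying pSer396 IRF3 relative to DMSO, plus a parallel CellTiter-Glo viability check.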

[2] = text bins, read-out: IC50 for inhibition of the kinase activity of IKKε
[3] = text bins, read-out: IC50 for inhibition of the kinase activity of TBK1
[4] = HEK293T cells, 20 hours, text bins, read-out: IC50 for inhibition of the in-situ IKKε-mediated phosphorylation of IRF3
[5] = HEK293T cells in culture, Table 3, read-out: pIRF3 ELISA IC50

Row | SMILES | IC50 (IKKε; [2]) [nM] | IC50 (TBK1; [3]) [nM] | IC50 [1, 4] [nM] | IC50 (IKKε; Table 3, read-out: IKKε IC50) [nM] | IC50 (TBK1; Table 3, read-out: TBK1 IC50) [nM] | IC50 [1, 5] [nM]
1 | COc1cc(Nc2nccc(-c3ccc(OC4CCOCC4)c(C#N)c3)n2)ccc1C(=O)N1CC(CN(C)C)C1 [compound 507, 5-(2-{[4-({3-[(dimethylamino)methyl]azetidin-1-yl}carbonyl)-3-methoxyphenyl]amino}pyrimidin-4-yl)-2-(tetrahydro-2H-pyran-4-yloxy)benzonitrile] | < 5 | < 10 | < 100 |  |  | 
2 | COc1cc(Nc2nccc(-c3ccc(OC4CCOCC4)c(C#N)c3)n2)ccc1OCCCN1CCN(C)CC1 [Example 256, 5-[2-({3-methoxy-4-[3-(4-methylpiperazin-1-yl)propoxy]phenyl}amino)pyrimidin-4-yl]-2-(tetrahydro-2H-pyran-4-yloxy)benzonitrile] | < 5 | < 10 | 100 to 250 |  |  | 
3 | CCN1CCN(CCCOc2cc(Nc3nccc(-c4ccc(OC5CCOCC5)c(C#N)c4)n3)ccc2OC)CC1 [compound 525, 5-[2-({3-[3-(4-ethylpiperazin-1-yl)propoxy]-4-methoxyphenyl}amino)pyrimidin-4-yl]-2-(tetrahydro-21H-pyran-4-yloxy)benzonitrile] | < 5 | < 10 | < 100 |  |  | 
4 | COc1cc(Nc2nccc(-c3ccc(OC4CCOCC4)c(C#N)c3)n2)ccc1C(=O)NC1CCN(C)CC1 [compound 381, 4-({4-[3-cyano-4-(tetrahydro-2H-pyran-4-yloxy)phenyl]pyrimidin-2-yl}amino)-2-methoxy-N-(1-methylpiperidin-4-yl)benzamide] | < 5 | < 10 | 250 to 500 | 0.6 | 0.4 | 349
5 | CN1CCC(NS(=O)(=O)c2ccc(Nc3nccc(-c4ccc(OC5CCOCC5)c(C#N)c4)n3)cc2)CC1 [compound 371, 4-({4-[3-cyano-4-(tetrahydro-2H-pyran-4-yloxy)phenyl]pyrimidin-2-yl}amino)-N-(1-methylpiperidin-4-yl)benzenesulfonamide] | < 5 | < 10 | 100 to 250 |  |  | 
6 | COc1cc(Nc2nccc(-c3ccc(OC4CCOCC4)c(C#N)c3)n2)ccc1C(=O)N1CCC1 [compound 567, 5-(2-{[4-(Azetidin-1-ylcarbonyl)-3-methoxyphenyl]amino}pyrimidin-4-yl)-2-(tetrahydro-2H-pyran-4-yloxy)benzonitrile] | < 5 | < 10 | < 100 |  |  | 
7 | CN1CCC(NCc2cccc(Nc3nccc(-c4ccc(OC5CCOCC5)c(C#N)c4)n3)c2)CC1 [Example 271, 5-{2-[(3-{[(1-Methylpiperidin-4-yl)amino]methyl}phenyl)amino]pyrimidin-4-yl}-2-(tetrahydro-2H-pyran-4-yloxy)benzonitrile] | < 5 | < 10 | < 100 |  |  | 
8 | CC(C)N1CCN(C(=O)Cc2cccc(Nc3nccc(-c4ccc(OC5CCOCC5)c(C#N)c4)n3)c2)CC1 [compound 408, 5-{2-[(3-{2-Oxo-2-[4-(propan-2-yl)piperazin-1-yl]ethyl}phenyl)amino]pyrimidin-4-yl}-2-(tetrahydro-2H-pyran-4-yloxy)benzonitrile] | 5 to 50 | < 10 | < 100 |  |  | 
9 | CN(C)S(=O)(=O)Cc1cccc(Nc2nccc(-c3ccc(OC4CCOCC4)c(C#N)c3)n2)c1 [compound 601, 1-[3-({4-[3-Cyano-4-(tetrahydro-2H-pyran-4-yloxy)phenyl]pyrimidin-2-yl}amino)phenyl]-N,N-dimethylmethane-sulfonamide] | < 5 | < 10 | 250 to 500 | 2.4 | 0.4 | 276
10 | CCN(CC)CCNC(=O)c1ccc(Nc2nccc(-c3ccc(OC4CCOCC4)c(C#N)c3)n2)cc1OC [compound 506, 4-({4-[3-cyano-4-(tetrahydro-2H-pyran-4-yloxy)phenyl]pyrimidin-2-yl}amino)-N-[2-(diethylamino)ethyl]-2-methoxybenzamide] | < 5 | < 10 | < 100 |  |  | 
11 | COc1ccc(Nc2nccc(-c3ccc(OC4CCOCC4)c(C#N)c3)n2)cc1OCCCC1CCNCC1 [compound 522, 5-[2-({4-methoxy-3-[3-(piperidin-4-yl)propoxy]phenyl}amino)pyrimidin-4-yl]-2-(tetrahydro-2H-pyran-4-yloxy)benzonitrile] | < 5 | < 10 | < 100 |  |  | 
12 | C[C@H](O)C(=O)NCc1ccc(Nc2nccc(-c3ccc(OC4CCOCC4)c(C#N)c3)n2)cc1 [compound 494, (2S)-N-[4-({4-[3-cyano-4-(tetrahydro-2H-pyran-4-yloxy)phenyl]pyrimidin-2-yl}amino)benzyl]-2-hydroxypropanamide] | < 5 | < 10 | 100 to 250 |  |  | 
13 | C[C@H](O)C(=O)N1CCC(Oc2ccc(-c3ccnc(Nc4ccc(C(=O)N5CCN(C)CC5)cc4)n3)cc2C#N)CC1 [Example 35, 2-({1-[(2S)-2-hydroxypropanoyl]piperidin-4-yl}oxy)-5-[2-({4-[(4-methylpierazin-1-yl)carbonyl]phenyl}amino)pyrimidin-4-yl]benzonitrile] | < 5 | < 10 | 250 to 500 |  |  | 
14 | COCCNCc1ccc(Nc2nccc(-c3ccc(OC4CCOCC4)c(C#N)c3)n2)cc1 [compound 488, 5-{2-[(4-{[(2-methoxyethyl)amino]methyl}phenyl)amino]pyrimidin-4-yl}-2-(tetrahydro-2H-pyran-4-yloxy)benzonitrile] | < 5 | < 10 | < 100 |  |  | 
15 | COc1cc(Nc2nccc(-c3ccc(OC4CCOCC4)c(C#N)c3)n2)ccc1C(=O)N1CCN2CCCC2C1 (stereo not drawn) [compound 501, 5-(2-{[4-(hexahydropyrrolo[1,2-a]pyrazin-2(1H)-ylcarbonyl)-3-methoxyphenyl]amino}pyrimidin-4-yl)-2-(tetrahydro-2H-pyran-4-yloxy)benzonitrile] | < 5 | < 10 | < 100 | 1.1 | 0.1 | 25.9
16 | COc1ccc(Nc2nccc(-c3ccc(OC4CCOCC4)c(C#N)c3)n2)cc1OCCCN1CCN(C(=O)C(C)C)CC1 [compound 524, 5-{2-[(4-methoxy-3-{3-[4-(2-methylpropanoyl)piperazin-1-yl]propoxy}phenyl)amino]pyrimidin-4-yl}-2-(tetrahydro-2H-pyran-4-yloxy)benzonitrile] | < 5 | < 10 | 100 to 250 |  |  | 
17 | N#Cc1cc(-c2ccnc(Nc3cccc(NC(=O)N4CCOCC4)c3)n2)ccc1OC1CCOCC1 [compound 646, N-[3-({4-[3-Cyano-4-(tetrahydro-2H-pyran-4-yloxy)phenyl]pyrimidin-2-yl}amino)phenyl] morpholine-4-carboxamide] | < 5 | < 10 | < 100 | 0.7 | 1.3 | 30.9
